Experimental data from US9062284B2, “Uses and detection of herbicide resistance genes for resistance to aryloxyalkanoate herbicides” (Dow ArgoSciences LLC, priority 2007, dated 2015).

Assays:
[1] = system: KY160 untransformed tobacco; assay: Herbicide response of untransformed KY160 tobacco; assay type: in vivo, Nicotiana tabacum; conditions: for % Injury 20-40% (individuals) / % Injury <20% (individuals) / % Injury >40% (individuals) / % Injury Ave: 2 WAT; for plant response to foliar applied auxinic herbicides (injury): 14 days after application
Excerpt: Surviving T1 plants were then randomly assigned to various rates of 2,4-D. For tobacco, 140 g ae/ha 2,4-D is an effective dose to distinguish sensitive plants from ones with meaningful levels of resistance. Elevated rates were also applied to determine relative levels of resistance (140, 560, or 2240 g ae/ha).
All auxin herbicide applications were applied by track sprayer in a 187 L/ha spray volume. 2,4-D used was the commercial dimethylamine salt formulation (456 g ae/L, NuFarm, St Joseph, Mo.). Some T1 individuals were subjected to alternative commercial herbicides instead of a phenoxy auxin. One point of interest was determining whether the pyridyloxyacetate auxin herbicides, triclopyr and fluoroxypyr, could be effectively degraded in planta. Herbicides were applied to T1 plants with use of a track sprayer in a 187 L/ha spray volume.
T1 transformants were first selected from the background of untransformed plants using a 2,4-D selection scheme. Table 15 compares the response of AAD-13 (v1) and control genes to impart 2,4-D resistance to tobacco T1 transformants. Response is presented in terms of % visual injury 2 WAT. […] An arithmetic mean and standard deviation is presented for each treatment. The range in individual response is also indicated in the last column for each rate and transformation. KY160 untransformed tobacco served as an auxin-sensitive control. The AAD-13 (v1) gene imparted herbicide resistance to individual T1 tobacco plants.
The ability of AAD-13 (v1) to provide resistance to other aryloxyalkanoate auxin herbicides in transgenic tobacco was determined by foliar application of various substrates. Extra T1 generation plants following the T1 progeny testing were sprayed with the use of a track sprayer set at 187 L/ha. The plants were sprayed with a range of pyridyloxyacetate herbicides: 140-1120 g ae/ha triclopyr (Garlon 3A, Dow AgroSciences) and 280-1120 g ae/ha fluoroxypyr (Starane, Dow AgroSciences). All applications were formulated in water. Each treatment was replicated 3 times. Plants were evaluated at 3 and 14 days after treatment.

AAD-13 (v2) = biological target: T1, AAD-13 (v2) (Sphingobium herbicidovorans, UniProt Q700X4); assay type: biochemical; conditions: substrate 1 mM; rate as percentage of 2,4-D rate in same sample set; propionate rates divided by two
T1 construct: His tag (C); made in house; host or cells: E. coli BL-21, pET-26b(+)
T1 sequence (Q700X4 other isoform, or with tags, fused parts or gaps): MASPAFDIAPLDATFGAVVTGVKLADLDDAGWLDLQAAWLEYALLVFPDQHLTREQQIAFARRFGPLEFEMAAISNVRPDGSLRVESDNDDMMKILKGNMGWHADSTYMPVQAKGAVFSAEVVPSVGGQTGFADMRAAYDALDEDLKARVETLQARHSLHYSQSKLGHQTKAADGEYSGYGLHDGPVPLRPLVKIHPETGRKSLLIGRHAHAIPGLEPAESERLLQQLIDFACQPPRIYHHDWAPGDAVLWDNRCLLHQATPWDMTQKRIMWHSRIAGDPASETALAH
Excerpt: In order to test a broad range of substrates, the production of succinate from the breakdown of α-ketoglutarate was detected spectrophotometricly using a protocol based on the method of Luo et. al. (2006) (Anal. Biochem. 353: 69-74). As depicted in FIG. 3, the concomitant breakdown of α-ketoglutarate and the substrate of interest via AAD-13, results in the production of succinate. Succinate is further modified to succinyl-CoA by succinyl-CoA synthetase which consumes ATP and produces ADP. ADP is then consumed by the commonly employed pyruvate kinase/lactate dehydrogenase enzymatic coupling system (Sigma P0294). The resulting conversion of NADH to NAD is monitored spectrophotometrically at 340 nm.
Identification of AAD-13 (v2) substrates in vitro was based on enzymatic activity detected during continuous spectrophotometric monitoring of a 0.2 mL reaction volume in a 96 well microtiter plate. Reaction conditions were as follows: 100 mM MOPS pH 7.0, 0.4 mM NADH, 0.4 mM ATP, 0.4 mM CoA, 1 mM PEP, 10 mM MgCl2, 0.1 mM […] (solubilized in HCl), and 0.1 mM ascorbate, 1 mM α-ketoglutarate and sufficient AAD-13 (v2) to produce an observable rate in the presence of 2,4-D. Coupling enzymes (SCS/PK/LDH) were adjusted by batch to ensure adequate coupling, and potential substrates were generally assayed at 1 mM. Alterations in substrate concentrations were made as needed to adjust for solubility. Reactions were initiated by either the addition of AAD-13 (v2) or potential substrate. The rate of substrate independent conversion of α-ketoglutarate to succinate by AAD was monitored under the above assay conditions and subtracted from the observed reaction rates. […] Additionally, propionate compounds were checked for pyruvate contamination by spectrophotometrically monitoring the consumption of NADH in the presence of compound and PK/LDH.
Reaction rates are reported as a percentage of the 2,4-D reaction rate obtained in the same sample set. […] It should be noted that faster rates can be more difficult to accurately compare depending on the percentage of available substrate consumed. […] As a result, highly efficient substrates will be properly grouped when compared to low efficiency substrates. Within the grouping of highly efficient substrates however, compounds may not be quantitatively separated by a screen using single rates of substrate and AAD.

CNC.O=C(O)COc1ccc(Cl)cc1Cl [2,4-D DMA]
% Injury 20-40% (individuals) ([1]; 140 g ae/ha postemergence): 0 | % Injury <20% (individuals) ([1]; 140 g ae/ha postemergence): 0 | % Injury >40% (individuals) ([1]; 140 g ae/ha postemergence): 3 | % Injury Ave ([1]; 140 g ae/ha postemergence): 80.0% | % Injury 20-40% (individuals) ([1]; 560 g ae/ha postemergence): 0 | % Injury <20% (individuals) ([1]; 560 g ae/ha postemergence): 0 | % Injury >40% (individuals) ([1]; 560 g ae/ha postemergence): 3 | % Injury Ave ([1]; 560 g ae/ha postemergence): 88.0% | % Injury 20-40% (individuals) ([1]; 2240 g ae/ha postemergence): 0 | % Injury <20% (individuals) ([1]; 2240 g ae/ha postemergence): 0 | % Injury >40% (individuals) ([1]; 2240 g ae/ha postemergence): 3 | % Injury Ave ([1]; 2240 g ae/ha postemergence): 92.0%

C[C@@H](Oc1ccc(Cl)cc1Cl)C(=O)O [R-dichloroprop, R-dichlorprop]
% of 24D activity (AAD-13 (v2)): 19%

Nc1c(Cl)c(F)nc(OCC(=O)O)c1Cl [fluoroxypyr]
% of 24D activity (AAD-13 (v2)): 67% | plant response to foliar applied auxinic herbicides (injury) ([1]; 280 g ae/ha): 100.0 | plant response to foliar applied auxinic herbicides (injury) ([1]; 560 g ae/ha): 100.0 | plant response to foliar applied auxinic herbicides (injury) ([1]; 1120 g ae/ha): 100.0

O=C(O)COc1nc(Cl)c(Cl)cc1Cl [triclopyr]
% of 24D activity (AAD-13 (v2)): 6% | plant response to foliar applied auxinic herbicides (injury) ([1]; 280 g ae/ha): 82.0 | plant response to foliar applied auxinic herbicides (injury) ([1]; 560 g ae/ha): 88.0 | plant response to foliar applied auxinic herbicides (injury) ([1]; 1120 g ae/ha): 92.0
